# Patent US8415299B2, “Methods for improved avian performance” (priority 2004, dated 2013)
# Read-outs that look alike come from different tables or passages of the source.
# Assays:
# [1] = test system: Cobb broiler breeder hens and roosters; format: in vivo; details: for # Eggs per pen: 40 ppm feed from 22-Sep, pen 51
# Description: Molting Cobb Broiler Breeder Hens and Roosters with Dietary Thyroxine.
# [2] = test system: turkey hens; details: cited from earlier work
# [3] = test system: 96-week old Hy-Line W-36 White Leghorn hens
# Description: Experiment 3. […] The photoperiod serves as the primary environmental signal that regulates reproductive function in many avian species. Increasing the photoperiod promotes maturation of the gonads and reproductive tract, whereas reducing the photoperiod causes the gonads and reproductive tract to regress and molting to occur.
# [4] = 20 mg/kg feed, 8 hr L, Day 30-34
# [5] = 20 mg/kg feed, 8 hr L, Days 13-15
# [6] = 20 mg/kg feed, 8 hr L, Days 16-22
# [7] = 20 mg/kg feed, 17 hr L, Day 30-34
# [8] = 20 mg/kg feed, 17 hr L, Days 13-15
# [9] = 20 mg/kg feed, 17 hr L, Days 16-22
# [10] = 40 mg T4/kg test diet, Chamber 6 (17 hr light)
# [11] = 40 mg/kg feed, 8 hr L, Day 30-34
# [12] = 40 mg/kg feed, 8 hr L, Days 13-15
# [13] = 40 mg/kg feed, 8 hr L, Days 16-22
# [14] = 40 mg/kg feed, 17 hr L, Day 30-34
# [15] = 40 mg/kg feed, 17 hr L, Days 13-15
smiles,measurement,setting,value
"N[C@@H](Cc1cc(I)c(Oc2cc(I)c(O)c(I)c2)c(I)c1)C(=O)O [L-thyroxine, 3,5,3′,5′-tetraiodothyronine]",# Eggs per pen,[1]; 18-Oct,0
same,# Eggs per pen,[1]; 18-Sep,19
same,# Eggs per pen,[1]; 19-Oct,0
same,# Eggs per pen,[1]; 19-Sep,20
same,# Eggs per pen,[1]; 20-Oct,0
same,# Eggs per pen,[1]; 20-Sep,16
same,# Eggs per pen,[1]; 21-Oct,0
same,# Eggs per pen,[1]; 21-Sep,16
same,# Eggs per pen,[1]; 22-Oct,0
same,# Eggs per pen,[1]; 22-Sep,18
same,# Eggs per pen,[1]; 23-Oct,0
same,# Eggs per pen,[1]; 23-Sep,15
same,# Eggs per pen,[1]; 24-Oct,0
same,# Eggs per pen,[1]; 24-Sep,10
same,# Eggs per pen,[1]; 25-Oct,0
same,# Eggs per pen,[1]; 25-Sep,11
same,# Eggs per pen,[1]; 26-Oct,0
same,# Eggs per pen,[1]; 26-Sep,6
same,# Eggs per pen,[1]; 27-Oct,0
same,# Eggs per pen,[1]; 27-Sep,5
same,# Eggs per pen,[1]; 28-Oct,0
same,# Eggs per pen,[1]; 28-Sep,0
same,# Eggs per pen,[1]; 29-Oct,3
same,# Eggs per pen,[1]; 29-Sep,1
same,# Eggs per pen,[1]; 30-Oct,3
same,# Eggs per pen,[1]; 30-Sep,0
same,# Eggs per pen,[1]; 31-Oct,3
same,"Time to reduced feed intake, ceased egg production and start of feather molt",[1]; Cobb broiler breeder hens on thyroxine treated feed (25 or 40 mg/kg),15 to 17 days
same,Time out of egg production after treatment,[2]; 2 mg/hen/day i.m. (Lien and Siopes 1993),4 weeks
same,Egg laying,"[2]; 3 mcg/mL water (600 to 900 mcg/bird/day), 20 to 25 week old turkey females (Bilezikian et al. 1980)",rarely lay eggs
same,Molting,"[3]; 20 mg T4/kg groups, either chamber",None of the hens in the Control groups or 20 mg T4/kg groups molted in either chamber
same,Time within which egg production was significantly reduced,"[3]; 20 mg T4/kg, Chamber 6 (17 hr light)",≤ 8 days
same,Hen-day egg production,"[3]; 20 mg/kg feed 12 d from day 13, 8 hr L, day 30",6.3%
same,Feed consumption (FC),[3]; [4],82.5 g/hen/d
same,Feed consumption change from days 1-12 (% FCC),[3]; [4],−32.0%
same,Feed consumption (FC),"[3]; 20 mg/kg feed, 8 hr L, Days 1-12 (pre-treatment)",121.3 g/hen/d
same,Feed consumption (FC),[3]; [5],41.8 g/hen/d
same,Feed consumption change from days 1-12 (% FCC),[3]; [5],−65.5%
same,Feed consumption (FC),[3]; [6],44.5 g/hen/d
same,Feed consumption change from days 1-12 (% FCC),[3]; [6],−63.3%
same,Feed consumption (FC),[3]; [7],135.0 g/hen/d
same,Feed consumption change from days 1-12 (% FCC),[3]; [7],11.1%
same,Feed consumption (FC),"[3]; 20 mg/kg feed, 17 hr L, Days 1-12 (pre-treatment)",121.5 g/hen/d
same,Feed consumption (FC),[3]; [8],58.0 g/hen/d
same,Feed consumption change from days 1-12 (% FCC),[3]; [8],−52.3%
same,Feed consumption (FC),[3]; [9],51.8 g/hen/d
same,Feed consumption change from days 1-12 (% FCC),[3]; [9],−57.4%
same,Hens that molted fully,"[3]; 40 mg T4/kg Group, Chamber 5 (8 hr light), 7/12",58%
same,Loss of initial body weight,[3]; [10],approximately 18%
same,Reduction of feed intake,[3]; [10],approximately 65%
same,Time within which egg production was significantly reduced,"[3]; 40 mg T4/kg, Chamber 6 (17 hr light)",≤ 6 days
same,Hens that molted fully,"[3]; 40 mg T4 kg Group, Chamber 6 (17 hr light)",100%
same,Hen-day egg production,"[3]; 40 mg/kg feed 12 d from day 13, 17 hr L, day 22",0.0%
same,Hen-day egg production,"[3]; 40 mg/kg feed 12 d from day 13, 17 hr L, day 24",0.0%
same,Hen-day egg production,"[3]; 40 mg/kg feed 12 d from day 13, 17 hr L, day 26",0.0%
same,Hen-day egg production,"[3]; 40 mg/kg feed 12 d from day 13, 17 hr L, day 28",0.0%
same,Hen-day egg production,"[3]; 40 mg/kg feed 12 d from day 13, 17 hr L, day 30",0.0%
same,Hen-day egg production,"[3]; 40 mg/kg feed 12 d from day 13, 17 hr L, day 32",0.0%
same,Hen-day egg production,"[3]; 40 mg/kg feed 12 d from day 13, 17 hr L, day 34",0.0%
same,Feed consumption (FC),[3]; [11],104.8 g/hen/d
same,Feed consumption change from days 1-12 (% FCC),[3]; [11],−9.5%
same,Feed consumption (FC),"[3]; 40 mg/kg feed, 8 hr L, Days 1-12 (pre-treatment)",115.8 g/hen/d
same,Feed consumption (FC),[3]; [12],36.8 g/hen/d
same,Feed consumption change from days 1-12 (% FCC),[3]; [12],−68.2%
same,Feed consumption (FC),[3]; [13],35.3 g/hen/d
same,Feed consumption change from days 1-12 (% FCC),[3]; [13],−69.5%
same,Feed consumption (FC),[3]; [14],93.3 g/hen/d
same,Feed consumption change from days 1-12 (% FCC),[3]; [14],−9.7%
same,Feed consumption (FC),"[3]; 40 mg/kg feed, 17 hr L, Days 1-12 (pre-treatment)",103.3 g/hen/d
same,Feed consumption (FC),[3]; [15],42.0 g/hen/d
same,Feed consumption change from days 1-12 (% FCC),[3]; [15],−59.3%
same,Feed consumption change from days 1-12 (% FCC),"[3]; 40 mg/kg feed, 17 hr L, Days 16-22",−63.7%
same,Mortality,"[3]; 20, 40 mg T4/kg feed 12 days",No mortality occurred in any of the Groups
same,Time within which egg production was significantly reduced,"[3]; 20 and 40 mg T4/kg, Chamber 5 (8 hr light)",≤ 4 days
